Experimental findings from patent US6967205B1, “Compounds with antibacterial and antiparasitic properties” (New Pharma Research Sweden AB, priority 1999, dated 2005) are described below.

In experiment [1] the test system is E. mitis, E. hagani, E. praecox, E. acervulina, E. maxima, E. necatrix, E. tenella and E. brunetti. As to the kind of experiment: Prophylactic anticoccidial effect in chickens of Arbor Aker breed (8 Eimeria strains). Format: in vivo. Particulars: 100 ppm in feed from day 3, infected day 7. The protocol:
JA 12, JA 39 and JA 42 was also evaluated in chickens of Arbor Aker breed. These trials were conducted by using basically the same test protocol as that used for the chickens of Habbared X breed, albeit with the following modifications:
• i) On day 3 after hatch, the tested groups of chickens received feed containing 100 ppm of JA 12, JA 39, JA 42 or Coxistac (60 ppm); • ii) On day 7 after hatch, the chickens were infected orally by oocysts containing a mixture of 8 mature sporulated strains, namely E. mitis, E. hagani, E. praecox, E. acervulina, E. maxima, E. necatrix, E. tenella and E. brunetti.

For experiment [2], the system named is Eimeria acervulina, E. maxima, E. necatrix, E. tenella and E. brunetti. In words: Prophylactic anticoccidial activity in chickens of Habbared X breed (5 Eimeria strains). The class given is in vivo. The protocol:
The anticoccidial activity of the present compounds as prophylactic agents was evaluated in vivo on […] one day old (1 day after hatch) chickens of Habbared X breed. The chickens were divided into four groups of 20 birds each, and each group was located in a separate pen (1 m×1 m). The chickens were then fed with unmedicated food up to day 7 after hatch. Fresh water was supplied ad libitum .
On day 8 after hatch, the four groups were fed as follows (1 ppm=1 mg drug/kg feed): • Group #1: feed containing JA 39 (100 ppm); • Group #2: feed containing JA 42 (100 ppm); • Group #3: feed containing Coxistac (60 ppm), a known anticoccidial agent (see U.S. Pat. No. 3,857,948);
Group #4: feed containing no drug (control group).
The chickens were fed as above on day 8 and 9 after hatch. On day 10 after hatch, each chicken was infected orally by 6 000-7 000 oocysts containing a mixture of 5 mature sporulated strains, namely Eimeria acervulina, E. maxima, E. necatrix, E. tenella and E. brunetti. The groups #1-3 received drug as above from day 10 to 21 after hatch.
From day 14 to 21 after hatch, fresh fecal droplets were collected and examined daily. The average number of oocysts/g faeces was then calculated in accordance with the so-called Mc-Master technique (Soulsby, E. J., Helminths, Arthropods & Protozoa of domesticated animals, p. 789, 6th Ed., Williams & Wilkins Co. Baltimore (USA), Tindall & Cassell Ltd., London, 1968). The final weight of and mean total amount of feed consumed by each bird were also examined, and the results are summarized in Table 8 hereinbelow.

In another experiment the test system is gram-positive bacteria. In words: Antibacterial activity against gram-positive bacteria, overall comparison with enrofloxacin. The settings on record: seven gram-positive strains of Table 6. Format: cell-based. The protocol:
The antibacterial activity of the present compounds was investigated by in vitro evaluation of their M.I.C. (Minimum Inhibitory Concentration) values. The evaluation was conducted in complete accordance with the “Broth dilution method”, as outlined by the U.S. National Committee for Clinical Laboratory Standards “NCCLS 1988”.
Solutions of the present compounds were prepared by dissolving 0.01 g of a test compound in either 10% KOH (aq) or a 10% KOH/DMF mixture, after which sterile, distilled H2O was added up to a total volume of 10 ml, thereby yielding a test compound concentration of 1 000 μg/ml.
In this evaluation, the antibacterial activity of the present compounds and enrofloxacin as reference compound was tested against seven strains of gram-positive bacteria, namely Bacillus subtilus (ATCC 6633), Bacillus cereus, Streptococcus faecium, Micrococcus Luteus (ATCC 9341), Staph. aureus (ATCC 29737), Staph. epidermidis (ATCC 12228) and Staphylococcus (ATCC 6538).

Experiment [3] has as its system Staphylococcus (ATCC 6538). In words: M.I.C. by broth dilution method (NCCLS 1988), gram-positive bacteria. The class given is cell-based. Particulars: ATCC6538, in vitro broth dilution, read-out: M.I.C. values Staph. (ATCC 6538). A digest of the protocol: (§1)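 MIC values were obtained by broth dilution following NCCLS 1988 against gram-positive strains including Bacillus subtilus ATCC 6633, Streptococcus faecium and Staphylococcus ATCC 6538. Enrofloxacin served as reference. Compound stocks were 1 000 μg/ml in aqueous KOH or KOH/DMF.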
(Broth dilution looks for growth in wells or tubes with falling amounts of substance.)

For a further experiment, the system named is Streptococcus faecium. Described as above. The class given is cell-based. Particulars: Enterococcus faecium, in vitro broth dilution, read-out: M.I.C. values Streptoc. faecium. A digest of the protocol: as §1
A further experiment concerns Bacillus cereus. Described as above. The settings on record: in vitro broth dilution. Format: cell-based. A digest of the protocol:
as §1

The test system of experiment [4] is Staph. aureus (ATCC 29737). The experiment is described as above. The class given is cell-based. The settings on record: Staphylococcus aureus, ATCC29737, in vitro broth dilution. The gist of the method: as §1
Experiment [5] relates to Micrococcus Luteus (ATCC 9341). The experiment is described as above. The class given is cell-based. The settings on record: ATCC9341, in vitro broth dilution, read-out: M.I.C. values Microc. Luteus. The gist of the method:
as §1

In experiment [6] the test system is Bacillus subtilus (ATCC 6633). The description is as above. Format: cell-based. The settings on record: ATCC6633, in vitro broth dilution. The gist of the method:
as §1

The test system of experiment [7] is Staph. epidermidis (ATCC 12228). The description is as above. The class given is cell-based. The settings on record: Staphylococcus epidermidis, ATCC12228, in vitro broth dilution. A digest of the protocol: as §1

Converted amounts (≈) assume the structure as drawn.

For the compound `O=C(O)c1cn(C2CC2)c2cc(N3CCN(c4cncc(Cl)n4)CC3)c(F)cc2c1=O` [JA 39, 7-[4-(6-chloro-2-pyrazinyl)-1-piperazinyl]-1-cyclopropyl-6-fluoro-4-oxo-1,4-dihydro-3-quinolinecarboxylic acid], the “prophylactic anticoccidial effect (in words)” value in experiment [1] is “essentially the same as those reported for the trials with the chickens of Habbared X breed”. Further, the “anticoccidial effect (in words)” value in experiment [2] (chickens of Habbared X breed, 100 ppm in feed) is “excellent anticoccidial effect”. Besides, the “Average number of Eimeria spp. oocysts/g faeces, day after hatch 14” value in experiment [2] (day 14 after hatch, drug in feed (JA 39, JA 42 100 ppm; Coxistac 60 ppm), infected day 10) was found to be 0.0 oocysts/g faeces. Moreover, the “Average number of Eimeria spp. oocysts/g faeces, day after hatch 15” value in experiment [2] (day 15 after hatch, drug in feed (JA 39, JA 42 100 ppm; Coxistac 60 ppm), infected day 10) was 4000 oocysts/g faeces. Besides, in [2] (day 16 after hatch, drug in feed (JA 39, JA 42 100 ppm; Coxistac 60 ppm), infected day 10), the “Average number of Eimeria spp. oocysts/g faeces, day after hatch 16” value is on record as 5000 oocysts/g faeces. Also, the “Average number of Eimeria spp. oocysts/g faeces, day after hatch 17” value in experiment [2] (day 17 after hatch, drug in feed (JA 39, JA 42 100 ppm; Coxistac 60 ppm), infected day 10) was 3000 oocysts/g faeces. Besides, in experiment [2] (day 18 after hatch, drug in feed (JA 39, JA 42 100 ppm; Coxistac 60 ppm), infected day 10), the “Average number of Eimeria spp. oocysts/g faeces, day after hatch 18” value was determined as 0.0 oocysts/g faeces. For the same compound, in experiment [2] (day 19 after hatch, drug in feed (JA 39, JA 42 100 ppm; Coxistac 60 ppm), infected day 10), the “Average number of Eimeria spp. oocysts/g faeces, day after hatch 19” value was determined as 0.0 oocysts/g faeces. Moreover, the “Average number of Eimeria spp. oocysts/g faeces, day after hatch 21” value in experiment [2] (day 21 after hatch, drug in feed (JA 39, JA 42 100 ppm; Coxistac 60 ppm), infected day 10) came to 0.0 oocysts/g faeces. Also, the “Mean body weight” value in [2] (final weight, infected chickens, drug in feed (JA 39, JA 42 100 ppm; Coxistac 60 ppm)) is listed as 68.2 g. In addition, the “Mean amount of feed consumed” value in [2] (mean total feed per bird, infected chickens, drug in feed (JA 39, JA 42 100 ppm; Coxistac 60 ppm)) turned out to be 81 g. For the same compound, the “Average number of Eimeria spp. oocysts/g faeces, Total” value in [2] (total of days 14-21 after hatch, drug in feed (JA 39, JA 42 100 ppm; Coxistac 60 ppm)) came to 12000 oocysts/g faeces. Moreover, in the experiment on gram-positive bacteria, the “antibacterial activity against gram-positive bacteria compared to that of enrofloxacin” value was “clearly superior”. Also, the MIC in experiment [3] was 0.03 µg/mL (≈ 0.0676 µM); in the experiment with Streptococcus faecium, 0.25 µg/mL (≈ 0.563 µM); with Bacillus cereus, 0.01 µg/mL (≈ 0.0225 µM); in experiment [4], 0.12 µg/mL (≈ 0.27 µM); in experiment [5], 1 µg/mL (≈ 2.25 µM); in [6], 0.06 µg/mL (≈ 0.135 µM). Also, in experiment [7], the MIC worked out at 0.01 µg/mL (≈ 0.0225 µM).
For `COc1ccc(S(=O)(=O)N2CCN(c3cc4c(cc3F)c(=O)c(C(=O)O)cn4C3CC3)CC2)cc1` [JA 4, 1-cyclopropyl-6-fluoro-7-{4-[(4-methoxyphenyl)sulfonyl]-1-piperazinyl}-4-oxo-1,4-dihydro-3-quinolinecarboxylic acid], the “antibacterial activity against gram-positive bacteria compared to that of enrofloxacin” value in the experiment on gram-positive bacteria is listed as “clearly superior”. Further, the MIC in experiment [3] is 0.01 µg/mL (≈ 0.0199 µM); in the experiment with Streptococcus faecium it was 0.06 µg/mL (≈ 0.12 µM); with Bacillus cereus, 0.01 µg/mL (≈ 0.0199 µM); in experiment [4], 0.06 µg/mL (≈ 0.12 µM); in experiment [5], 0.25 µg/mL (≈ 0.498 µM); in [6], 0.01 µg/mL (≈ 0.0199 µM). The compound further registered an MIC in [7] of 0.03 µg/mL (≈ 0.0598 µM).
